Experiments:
SOD2 = SOD2 mRNA expression in hHSC; format: cell-based, human
[1] = system: MMP2, TIMP1, Interleukin-1β, Interleukin 6, Interleukin 8
Protocol: (§1) Primary human hepatic stellate cells (hHSCs) were cultured. Effects of an NH4Cl challenge (0.1-10 mM over 24-72 hrs) on hHSC proliferation (BrdU), metabolic activity (MTS assay), viability (Neutral-Red), ultrastructural changes (TE-M) and gene/protein expression (q-PCR/Western blot) were studied. To test recovery, ammonia treated cells were replenished with glutamine and in separate experiments, pre-treated with L-methionine-sulfoximine (MSO-GS inhibitor) to determine the importance of glutamine synthetase (GS).
(§2) In this example, primary human HSCs (hHSCs) were isolated and cultured. Proliferation (BrdU), metabolic activity (MTS), morphology (TEM, light- and immunofluorescence microscopy), HSC activation markers, ability to contract, and changes in oxidative status (ROS) were evaluated to identify effects of ammonia challenge (50 μM, 100 μM, 300 μM) over 24-72 hours.

[2] = system: α-SMA, vimentin, PDGF-Rβ, Myosin IIa and IIb, p-38 MAPK, Collagen type I
Protocol: as §1, §2

[3] = system: primary human hepatic stellate cells (hHSCs); conditions: after 3 hours, sustained after 24 hours, vs control
Protocol: as §2

[4] = system: primary human hepatic stellate cells (hHSCs)
Source text: (§3) Primary hHSCs were isolated from wedge sections of liver tissue, obtained from patients undergoing surgery in the Royal Free Hospital after giving informed consent (EC01.14-RF). Cells were isolated according to Mederacke et al. (Nature Protocols 2015, 10:305-315) with modifications for human liver as described in Rombouts K, Carloni V. Determination and characterization of tetraspanin-associated phosphoinositide-4 kinases in primary and neoplastic liver cells. In: Waugh MG, editor. Lipid Signaling Protocols, 2 ed. New York: Springer Science+Business Media; 2015. p. 203-212). Briefly, 10 g of total human liver tissue was digested with 0.01% Collagenase, 0.05% Pronase and 0.001% DNase I without performing perfusion. The homogenate was filtered through a 100 μm cell strainer and the flow-through was centrifuged at 50×g for 2 minutes at 4° C. After washing the supernatant, gradient centrifugation was performed at 1400×g for 17 minutes at 4° C. using an 11.5% Optiprep gradient. Finally, the interface was collected and washed. Purity of hHSCS was established by detection of CD140b (PDGFRbeta), CD29 (Integrin beta 1) and Cytoglobin (CYGB).
The obtained HSCs were cultured in RPMI supplemented with 20% fetal bovine serum (FBS), GLUTAMAX, nonessential amino acids 1×, 1.0 mM sodium pyruvate, 1× antibiotic-antimycotic (all Life Technologies), referred to as complete HSC medium hereinafter. […]

[5] = system: primary human hepatic stellate cells (hHSCs); remark: listed apart in the source
Protocol: as §1, §2, §3
The obtained HSCs were cultured in RPMI supplemented with 20% fetal bovine serum (FBS), GLUTAMAX, nonessential amino acids 1×, 1.0 mM sodium pyruvate, 1× antibiotic-antimycotic (all Life Technologies), referred to as complete HSC medium hereinafter. Experiments described in this study were performed on hHSCs of at least three independent cell preparations between passage 3 and 8.
Cells were seeded (density 26×10^3/cm^2) under basic serum-rich conditions (CM complete medium) for 24 hours, followed by serum deprivation for another 24 hours (SFM). Exogenous glutamine was removed from the culture medium to avoid uncontrolled generation of ammonia. Specific treatment with NH4Cl treatments were replaced daily for the duration of the experiment.

[6] = system: primary human hepatic stellate cells (hHSCs); conditions: up to 72 hours
Protocol: The formation of reactive oxygen species (ROS) was measured using Image-IT™ LIVE Green Reactive Oxygen Species Detection Kit. In FIG. 3B, mean fluorescence intensity (MFI) of ROS signal was normalized according to the number of cells (Hoechst 33342), and expressed as percentage of control.
as §2

[7] = system: primary human hepatic stellate cells (hHSCs); test: hHSC recovery with glutamine and GS inhibition (MSO) under ammonia; format: cell-based
Protocol: as §1

[8] = increasing concentrations of ammonia
[9] = Example 1, NH4Cl challenge 0.1-10 mM over 24-72 hrs
[10] = different concentrations of ammonia (50, 100, 300 μM), 72 hours
[11] = in comparison to MSO treatment only

N [ammonia, NH4Cl]
SOD2 mRNA expression (SOD2; ammonia, after 3 hours, sustained at 24 hours): strong increase | Interleukin 8 mRNA expression [1]: did not modify | MMP2 mRNA expression ([1]; FIG. 4B): strong and significant up-regulation | TIMP1 mRNA expression ([1]; FIG. 4B): down-regulated | Interleukin-1β mRNA expression ([1]; ammonia 300 μM for 72 hours): significantly induced | Interleukin 6 mRNA expression level ([1]; ammonia at 50 μM and 100 μM): significantly up-regulated | P-38 MAPK expression [2]: dose-dependent response | PDGFR-β protein [2]: significant up-regulation | Vimentin synthesis ([2]; 300 μM ammonia): increased | α-SMA protein expression ([2]; FIG. 4A): significantly increase | Myosin IIa protein [2, 8]: significantly modulated | Myosin IIb protein [2, 8]: significantly modulated | Collagen type I protein ([2]; not statistically significant): tendency to increase | Contraction of hHSCs cultured on collagen gels [3]: significant ability to contract | Cell death (Cell Death Detection ELISA) [4]: did not cause cell death | Filamentous actin in the cytoskeleton (TRITC-Phalloidin staining) ([5]; 72 hours): dose-dependent disruption of filamentous actin | Intracellular ER (ultrastructure) ([5]; Example 1): dose-dependent intracellular ER enlargement | Metabolic activity [5, 9]: time dependent decreases | Proliferation [5, 9]: time dependent decreases | Cell phenotype ([5]; Example 1, even at 50-100 umol/L): cell swelling and a myo-fibroblast-like phenotype | Cell proliferation (BrdU assay) [5, 10]: significant inhibition | Metabolic activity (MTS assay) [5, 10]: significant inhibition | Ultrastructural change (TEM) ([5]; dose-dependent, FIG. 2A): dramatic dose-dependent change in the cytosol and marked presence of translucent vacuoles | Metabolic activity after MSO pretreatment followed by ammonia [5, 11]: did not further inhibit | Proliferation after MSO pretreatment followed by ammonia [5, 11]: did not further inhibit | ROS production [6]: produced significant reactive oxygen species

CS(=N)(=O)CC[C@H](N)C(=O)O (stereo partly drawn) [MSO, L-Methionine sulfoximine]
Effect of MSO together with hyperammonemia on hHSC ([7]; Example 1, MSO pre-treatment): induced cell detachment and prevention of recovery

NC(=O)CC[C@H](N)C(=O)O [L-glutamine]
Ammonia-induced ER enlargement on replenishing the culture with L-glutamine ([7]; Example 1): reversible

CC(=O)N[C@@H](CS)C(=O)O [NAC, N-acetyl cysteine]
Ammonia-induced SOD2 mRNA expression after NAC pre-treatment (SOD2; 3 hours of ammonia treatment): no impact | Ammonia-induced SOD2 mRNA expression after NAC pre-treatment (SOD2; 24 hours of ammonia treatment): almost completely abolished

— patent US11040021B2, “Treatment of diseases associated with hepatic stellate cell activation using ammonia-lowering therapies” (UCL Business PLC, priority 2014, dated 2021)
